# Calls of active or inactive are those of the source. No cut-off for these calls is given here.
# What was measured:
# [1] = test system: Lenvatinib-resistant Hep3B/Len; assay: Inhibition of cell migration in human Lenvatinib-resistant Hep3B/Len cells at 5 uM incubated for 48 hrs by transwell assay; format: functional, cell-based
# [2] = test system: Lenvatinib-resistant Huh7/Len; assay: Antitumor activity against human Lenvatinib-resistant Huh7/Len cells xenografted in BALB/c nude mouse assessed as reduction in m6A RNA level at 1.5 mg/kg, ip 5 times per week for 3 weeks by Dot blot assay; format: functional, organism-based
# [3] = test system: Lenvatinib-resistant HCC/Len; assay: Antitumor activity against human Lenvatinib-resistant HCC/Len cells xenografted in BALB/c nude mouse model of PDX assessed as tumor growth inhibition at 1.5 mg/kg, ip cotreated with lenvatinib 5 times per week for 3 weeks; format: functional, organism-based
# [4] = molecular target: N6-adenosine-methyltransferase catalytic subunit (Homo sapiens) (UniProt Q86U44); assay: Inhibition of METTL3 in human Lenvatinib-resistant Huh7/Len cells assessed as effect on MMP3 mRNA expression level at 2 uM incubated for 72 hrs by RT-PCR analysis; format: cell-based
# [5] = molecular target: N6-adenosine-methyltransferase catalytic subunit (Homo sapiens) (UniProt Q86U44); assay: Inhibition of METTL3 in human Huh-7 cells assessed as down regulation of m6A RNA level incubated for 72 hrs by Dot blot assay; format: cell-based; conditions: dose 5-10 µM
# [6] = test system: Lenvatinib-resistant Hep3B/Len; assay: Inhibition of cell migration in human Lenvatinib-resistant Hep3B/Len cells at 5 uM incubated for 48 hrs in presence of lenvatinib by transwell assay relative to control; format: functional
# [7] = molecular target: N6-adenosine-methyltransferase catalytic subunit (Homo sapiens) (UniProt Q86U44); assay: Inhibition of METTL3 in human Lenvatinib-resistant Huh7/Len cells assessed as effect on MYC mRNA expression level at 2 uM incubated for 72 hrs by RT-PCR analysis; format: cell-based
# [8] = test system: Lenvatinib-resistant Huh7/Len; assay: Antiproliferative activity against human Lenvatinib-resistant Huh7/Len cells assessed as inhibition of cell viability up to 40 uM after 72 hrs by CCK-8 assay; format: functional, cell-based
# [9] = test system: Lenvatinib-resistant Huh7/Len; assay: Inhibition of cell migration in human Lenvatinib-resistant Huh7/Len cells at 5 uM incubated for 48 hrs in presence of lenvatinib by transwell assay relative to control; format: functional
# [10] = Toxicity in BALB/c nude mouse xenografted with human Lenvatinib-resistant Huh7/Len cells assessed as changes in body weight at 1.5 mg/kg, ip administered 5 times per week for 3 weeks; format: organism-based; conditions: in vivo, 504 h
# [11] = test system: Lenvatinib-resistant Hep3B/Len; assay: Antiproliferative activity against human Lenvatinib-resistant Hep3B/Len cells assessed as inhibition of clone formation ability at 5 uM preincubated for 72 hrs and measured after 7 to 10 days by crystal violet staining based assay; format: functional, cell-based; conditions: time 10-13 day
# [12] = test system: Lenvatinib-resistant Huh7/Len; assay: Anticancer activity against human Lenvatinib-resistant Huh7/Len cells assessed as reduction in UBE3B protein expression at 2 uM by Western blot analysis; format: functional, cell-based
# [13] = molecular target: N6-adenosine-methyltransferase catalytic subunit (Homo sapiens) (UniProt Q86U44); assay: Inhibition of METTL3 in human Lenvatinib-resistant Huh7/Len cells assessed as effect on TIBIM6 mRNA expression level at 2 uM incubated for 72 hrs by RT-PCR analysis; format: cell-based
# [14] = test system: Lenvatinib-resistant HCC/Len; assay: Antitumor activity against human Lenvatinib-resistant HCC/Len cells xenografted in BALB/c nude mouse model of PDX assessed as inhibition of tumor volume at 1.5 mg/kg, ip cotreated with lenvatinib 5 times per week for 3 weeks; format: functional; conditions: 504 h
# [15] = test system: Lenvatinib-resistant Huh7/Len; assay: Anticancer activity against human Lenvatinib-resistant Huh7/Len cells assessed as increase in m6A modification in coding region by MeRIP-m6A -sequencing analysis; format: functional, cell-based
# [16] = molecular target: N6-adenosine-methyltransferase catalytic subunit (Homo sapiens) (UniProt Q86U44); assay: Inhibition of METTL3 in human Lenvatinib-resistant Huh7/Len cells assessed as effect on GATA3 mRNA expression level at 2 uM incubated for 72 hrs by RT-PCR analysis; format: cell-based
# [17] = molecular target: N6-adenosine-methyltransferase catalytic subunit (Homo sapiens) (UniProt Q86U44); assay: Inhibition of METTL3 in human Lenvatinib-resistant Huh7/Len cells assessed as effect on EZH2 mRNA expression level at 2 uM incubated for 72 hrs by RT-PCR analysis; format: cell-based
# [18] = Toxicity in BALB/c nude mouse xenografted with human Lenvatinib-resistant Huh7/Len cells assessed as changes in body weight at 1.5 mg/kg, ip cotreated with lenvatinib 5 times per week for 3 weeks; format: organism-based; conditions: in vivo, 504 h
# [19] = test system: Lenvatinib-resistant Huh7/Len; assay: Antitumor activity against human Lenvatinib-resistant Huh7/Len cells xenografted in BALB/c nude mouse assessed as reduction in METTL3 protein expression at 1.5 mg/kg, ip 5 times per week for 3 weeks by Western blot assay; format: functional, organism-based
# [20] = molecular target: N6-adenosine-methyltransferase catalytic subunit (Homo sapiens) (UniProt Q86U44); assay: Inhibition of METTL3 in human Lenvatinib-resistant Huh7/Len cells assessed as effect on IFFO1 mRNA expression level at 2 uM incubated for 72 hrs by RT-PCR analysis; format: cell-based
# [21] = molecular target: N6-adenosine-methyltransferase catalytic subunit (Homo sapiens) (UniProt Q86U44); assay: Inhibition of METTL3 in human Lenvatinib-resistant Huh7/Len cells assessed as effect on HNF4A mRNA expression level at 2 uM incubated for 72 hrs by RT-PCR analysis; format: cell-based
# [22] = molecular target: N6-adenosine-methyltransferase catalytic subunit (Homo sapiens) (UniProt Q86U44); assay: Inhibition of METTL3 in human Lenvatinib-resistant Huh7/Len cells assessed as effect on DEK mRNA expression level at 2 uM incubated for 72 hrs by RT-PCR analysis; format: cell-based
# [23] = molecular target: N6-adenosine-methyltransferase catalytic subunit (Homo sapiens) (UniProt Q86U44); assay: Inhibition of METTL3 in human Lenvatinib-resistant Huh7/Len cells assessed as effect on LATS1 mRNA expression level at 2 uM incubated for 72 hrs by RT-PCR analysis; format: cell-based
# Huh-7 = assay: Effect on METTL3 protein expression in human Huh-7 cells at 2 uM incubated for 72 hrs by Western blot analysis; format: functional, cell-based
# [24] = test system: Lenvatinib-resistant Huh7/Len; assay: Antiproliferative activity against human Lenvatinib-resistant Huh7/Len cells assessed as inhibition of clone formation ability at 5 uM preincubated for 72 hrs and measured after 7 to 10 days by crystal violet staining based assay; format: functional, cell-based; conditions: time 10-13 day
# [25] = molecular target: N6-adenosine-methyltransferase catalytic subunit (Homo sapiens) (UniProt Q86U44); assay: Inhibition of METTL3 in human Lenvatinib-resistant Huh7/Len cells assessed as effect on SLC7A11 mRNA expression level at 2 uM incubated for 72 hrs by RT-PCR analysis; format: cell-based
# [26] = test system: Lenvatinib-resistant Huh7/Len; assay: Inhibition of cell migration in human Lenvatinib-resistant Huh7/Len cells at 5 uM incubated for 48 hrs by transwell assay; format: functional, cell-based
# [27] = molecular target: N6-adenosine-methyltransferase catalytic subunit (Homo sapiens) (UniProt Q86U44); assay: Inhibition of METTL3 in human Lenvatinib-resistant Huh7/Len cells assessed as effect on IFIT2 mRNA expression level at 2 uM incubated for 72 hrs by RT-PCR analysis; format: cell-based
# [28] = Toxicity in BALB/c nude mouse PDX model xenografted with human Lenvatinib-resistant HCC/Len cells assessed as changes in organ index at 1.5 mg/kg, ip cotreated with lenvatinib 5 times per week for 3 weeks; format: organism-based; conditions: in vivo, 504 h
# [29] = molecular target: N6-adenosine-methyltransferase catalytic subunit (Homo sapiens) (UniProt Q86U44); assay: Inhibition of METTL3 in human Lenvatinib-resistant Huh7/Len cells assessed as effect on MMP13 mRNA expression level at 2 uM incubated for 72 hrs by RT-PCR analysis; format: cell-based
# [30] = Toxicity in BALB/c nude mouse PDX model xenografted with human Lenvatinib-resistant HCC/Len cells assessed as changes in organ index at 1.5 mg/kg, ip administered 5 times per week for 3 weeks; format: organism-based; conditions: in vivo, 504 h
# [31] = molecular target: N6-adenosine-methyltransferase catalytic subunit (Homo sapiens) (UniProt Q86U44); assay: Inhibition of METTL3 in human Lenvatinib-resistant Huh7/Len cells assessed as effect on UCK2 mRNA expression level at 2 uM incubated for 72 hrs by RT-PCR analysis; format: cell-based
# N6-adenosine-methyltransferase catalytic subunit (Homo sapiens), sequence (Q86U44 whole entry): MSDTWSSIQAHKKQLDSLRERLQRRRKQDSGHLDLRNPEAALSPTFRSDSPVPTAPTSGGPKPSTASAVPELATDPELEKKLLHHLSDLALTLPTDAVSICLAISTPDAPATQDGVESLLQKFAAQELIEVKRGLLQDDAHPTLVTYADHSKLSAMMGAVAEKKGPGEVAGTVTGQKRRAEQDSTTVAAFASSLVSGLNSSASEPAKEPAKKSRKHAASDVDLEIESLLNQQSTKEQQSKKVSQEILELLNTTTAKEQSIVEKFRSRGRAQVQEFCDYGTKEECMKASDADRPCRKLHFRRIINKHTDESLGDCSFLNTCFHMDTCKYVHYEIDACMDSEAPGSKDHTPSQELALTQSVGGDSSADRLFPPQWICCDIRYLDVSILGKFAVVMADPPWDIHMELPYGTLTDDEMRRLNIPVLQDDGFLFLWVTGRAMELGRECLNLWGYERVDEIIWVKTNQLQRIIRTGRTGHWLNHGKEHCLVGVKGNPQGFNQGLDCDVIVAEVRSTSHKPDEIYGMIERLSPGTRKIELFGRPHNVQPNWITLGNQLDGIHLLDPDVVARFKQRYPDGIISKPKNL
compound,measurement,setting,value
CN1[C@@H](CC(=O)c2ccccc2)CCC[C@H]1C[C@H](O)c1ccccc1 [LOBELINE],inhibition,[1],inactive
same,Activity,[2],inactive
same,TGI,[3],Active
same,inhibition,[4],Active
same,inhibition,[5],Dose-Dependent Effect
same,inhibition at 5 µM,[6],42%
same,inhibition,[7],Active
same,inhibition,[8],Active
same,inhibition at 5 µM,[9],42%
same,Activity,[10],Non-Toxic
same,inhibition,[11],inactive
same,Activity,[12],Active
same,inhibition,[13],Active
same,inhibition in vivo at 1.5 mg/kg,[14],60%
same,Activity,[15],Active
same,inhibition,[16],Active
same,inhibition,[17],Active
same,Activity,[18],Non-Toxic
same,Activity,[19],inactive
same,inhibition,[20],Active
same,inhibition,[21],Active
same,inhibition,[22],Active
same,inhibition,[23],Active
same,Activity,Huh-7,inactive
same,inhibition,[24],inactive
same,inhibition,[25],Active
same,inhibition,[26],inactive
same,inhibition,[27],Active
same,Activity,[28],Non-Toxic
same,inhibition,[29],Active
same,Activity,[30],Non-Toxic
same,inhibition,[31],Active

# Source: ChEMBL document CHEMBL5584314, “Identification of an m6A Natural Inhibitor, Lobeline, That Reverses Lenvatinib Resistance in Hepatocellular Tumors” (J Nat Prod, 2024)
